In publication PMC5871718 (Cell, 2018):

Assays:
NUDT1 = target: T1, NUDT1 (Homo sapiens, UniProt P36639); assay: 2D thermal proteome profiling (TMT mass spectrometry); assay type: cell-based; settings: intact THP-1 cells, […] min, […] °C; stabilization
T1 construct: endogenous protein in THP-1 cells, identified by mass spectrometry

BRD3 = target: T2, BRD3 (Homo sapiens, UniProt Q15059); assay: as above; assay type: cell-based; settings: intact THP-1 cells, […] min, […] °C; stabilization
T2 construct: endogenous full-length protein in THP-1 cells or lysate, identified by mass spectrometry

SOAT1 = target: T3, SOAT1 (Homo sapiens, UniProt P35610); assay: as above; assay type: cell-based; settings: intact THP-1 cells, […] min, […] °C; stabilization; text value approximate
T3 construct: endogenous full-length protein in THP-1 cells, identified by mass spectrometry
T3 sequence (P35610 1-550): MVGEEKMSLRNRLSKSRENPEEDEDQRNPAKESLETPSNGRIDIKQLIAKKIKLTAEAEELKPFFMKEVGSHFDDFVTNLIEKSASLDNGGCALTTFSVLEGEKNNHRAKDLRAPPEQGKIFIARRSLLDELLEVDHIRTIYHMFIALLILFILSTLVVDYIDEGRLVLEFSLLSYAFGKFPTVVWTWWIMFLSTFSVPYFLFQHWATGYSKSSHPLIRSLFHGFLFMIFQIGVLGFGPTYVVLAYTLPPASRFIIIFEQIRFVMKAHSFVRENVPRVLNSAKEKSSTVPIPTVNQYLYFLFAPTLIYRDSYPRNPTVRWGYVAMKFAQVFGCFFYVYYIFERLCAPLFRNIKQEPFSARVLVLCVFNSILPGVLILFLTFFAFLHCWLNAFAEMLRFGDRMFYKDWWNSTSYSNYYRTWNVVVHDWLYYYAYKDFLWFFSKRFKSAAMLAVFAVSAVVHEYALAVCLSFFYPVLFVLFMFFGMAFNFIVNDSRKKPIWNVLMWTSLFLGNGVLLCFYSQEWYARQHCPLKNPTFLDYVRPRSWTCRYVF
Source text: 2D thermal proteome profiling (TMT mass spectrometry) on SOAT1 | stabilized SOAT1 and several members of the sterol biosynthesis pathway

FYTTD1 [1] = target: T4, FYTTD1 (Homo sapiens, UniProt Q96QD9); assay: as above; assay type: cell-based; set-up: endogenous protein in THP-1 cells, identified by mass spectrometry; settings: intact THP-1 cells, […] min, […] °C; destabilization; text value approximate
T4 sequence (Q96QD9 1-318): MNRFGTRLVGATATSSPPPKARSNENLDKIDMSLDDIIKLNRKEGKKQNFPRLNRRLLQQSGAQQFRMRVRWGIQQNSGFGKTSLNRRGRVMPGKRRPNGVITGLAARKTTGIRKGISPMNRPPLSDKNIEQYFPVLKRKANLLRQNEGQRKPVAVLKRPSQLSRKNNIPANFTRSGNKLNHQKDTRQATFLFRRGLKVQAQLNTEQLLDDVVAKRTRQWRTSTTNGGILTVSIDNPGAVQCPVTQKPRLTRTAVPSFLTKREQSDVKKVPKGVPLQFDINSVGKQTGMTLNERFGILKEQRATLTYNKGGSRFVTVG
Source text: 2D thermal proteome profiling (TMT mass spectrometry) on FYTTD1 | JQ1 further caused dose-dependent destabilization of FYTTD1

FYTTD1 [2] = target: T4, FYTTD1; assay: thermal shift of spiked recombinant protein, mass spectrometry read-out; assay type: binding; set-up: commercial recombinant protein (Abcam ab164533); settings: […] JQ1, […] protein in background of recombinant protein domains, […] HEPES pH […] NaCl, […] glycerol, […] Tween20; destabilization

T2 sequence (Q15059 2-726): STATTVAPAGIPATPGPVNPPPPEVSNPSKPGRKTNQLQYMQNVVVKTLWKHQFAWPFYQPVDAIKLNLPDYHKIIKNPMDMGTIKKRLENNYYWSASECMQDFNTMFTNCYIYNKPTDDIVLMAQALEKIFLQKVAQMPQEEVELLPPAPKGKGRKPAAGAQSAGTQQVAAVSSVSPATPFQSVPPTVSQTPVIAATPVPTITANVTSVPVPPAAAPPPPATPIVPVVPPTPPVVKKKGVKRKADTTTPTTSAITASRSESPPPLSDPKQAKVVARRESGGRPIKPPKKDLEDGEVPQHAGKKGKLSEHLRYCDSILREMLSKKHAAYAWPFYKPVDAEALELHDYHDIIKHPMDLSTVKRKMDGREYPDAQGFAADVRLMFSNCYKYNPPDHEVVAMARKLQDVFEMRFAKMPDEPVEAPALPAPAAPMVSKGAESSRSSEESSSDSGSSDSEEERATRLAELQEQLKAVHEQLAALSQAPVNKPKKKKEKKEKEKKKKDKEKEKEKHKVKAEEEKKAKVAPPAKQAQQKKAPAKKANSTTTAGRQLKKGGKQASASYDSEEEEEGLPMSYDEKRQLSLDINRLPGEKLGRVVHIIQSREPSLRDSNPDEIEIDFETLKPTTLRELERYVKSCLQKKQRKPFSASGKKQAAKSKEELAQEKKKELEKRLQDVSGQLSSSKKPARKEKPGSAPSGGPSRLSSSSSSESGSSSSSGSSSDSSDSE

Row | SMILES | pEC50 (NUDT1) | pEC50 (BRD3) | EC50 (SOAT1) | EC50 (FYTTD1 [1]) | thermal shift (FYTTD1 [2])
1 | COc1cc2c(cc1-c1c(C)noc1C)ncc1[nH]c(=O)n([C@H](C)c3ccccn3)c12 [I-BET151, 7-(3,5-dimethylisoxazol-4-yl)-8-methoxy-1-((R)-1-(pyridin-2-yl)ethyl)-1H-imidazo[4,5-c]quinolin-2(3H)-one] | 5.3 | 5.9 | – | – | –
2 | Cc1sc2c(c1C)C(c1ccc(Cl)cc1)=N[C@@H](CC(=O)OC(C)(C)C)c1nnc(C)n1-2 [JQ1] | – | – | ~1000 nM | ~1000 nM | Thermal shift assays with recombinantly expressed FYTTD1 confirmed destabilization by JQ1 binding
